Measurements reported in patent US20250269043A1, “TARGETED BIFUNCTIONAL DEGRADERS” (YALE UNIVERSITY, priority 2019, published 2025).

How the values were obtained:
HepG2 cells [1] = experiment: MIF-GN3-mediated endocytosis of Alexa 488-labeled human MIF by HepG2 cells; details: for effect of endocytic pathway inhibitors on MIF-GN3-mediated MIF endocytosis: MIF 100 nM, MIF-GN3 200 nM, FIG. 132
Description: Human MIF protein was fluorescently labeled with Alexa 488 NHS ester, then incubated with HepG2 cells in the presence of varying levels of MIF-GN3.
The ability of MIF-GN3 to mediate MIF endocytosis over a wide range of target protein concentrations was assessed.
Next, inhibitors of various endocytic pathways were utilized to determine if MIF-GN3 mediates MIF endocytosis in a manner consistent with ASGPR (FIG. 132).

HepG2 cells [2] = experiment: DNP-GN3-mediated endocytosis of fluorescently labeled α-DNP antibody by adherent HepG2 cells; format: cell-based, human; details: sodium azide and 2-deoxyglucose as combined treatment; FIG. 89
Description: It was next explored whether DNP-GN3 mediates the endocytosis of fluorescently labeled α-DNP antibody.
To explore the cellular mechanism of antibody uptake, cells were treated with chemical inhibitors of several endocytic pathways (FIG. 89).

HepG2 cells [3] = experiment: DNP-AF3-mediated α-DNP antibody endocytosis by HepG2 cells (flow cytometry); format: cell-based, human; details: 40 nM DNP-AF3, 100 nM antibody; for effect of endocytic pathway inhibitors on DNP-AF3-mediated α-DNP antibody endocytosis: FIG. 106; for effect of competitive binders on DNP-AF3-mediated α-DNP antibody endocytosis: ASF 2.07 μM, AF and GalNAc 1.25 mM, FIG. 105
Description: The intracellular fluorescence of cells that were incubated at 37° C. with both fluorescently labeled α-DNP antibody and DNP-AF3 for a given amount of time was examined. Cells were then washed, removed from the plate with trypsin, and subjected to flow cytometry.
It was then determined if reagents which inhibit ternary complex formation inhibit endocytosis mediated by DNP-AF3.
Next, whether inhibitors of specific endocytic pathways inhibited α-DNP antibody endocytosis was determined (FIG. 106).

human MIF [4] = molecular target: T1, human MIF (Homo sapiens, UniProt P14174); experiment: Depletion of injected recombinant human MIF from serum in mice; format: in vivo; set-up: injected into mice; details: control molecules injected along with human MIF; FIG. 136
T1 sequence (P14174 2-115 limits assumed): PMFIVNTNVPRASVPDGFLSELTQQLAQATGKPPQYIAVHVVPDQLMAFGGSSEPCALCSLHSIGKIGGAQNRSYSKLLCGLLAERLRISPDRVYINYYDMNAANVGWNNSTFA
Description: In vivo human MIF depletion experiments were undertaken to determine whether MIF-GN3 can mediate the depletion of injected recombinant human MIF from serum in mice. Mice were injected with five μg of the human MIF protein. In this experiment, one group of mice was also injected with a single 10 mpk dose of MLF-GN3 along with human MIF protein. It was observed that after four hours, the average level of human MIF in serum in the PBS-treated mice was 1.76 ng/mL (FIG. 134). In mice treated with 10 mpk MIF-GN3, however, the concentration of human MIF in serum was 0.68 ng/mL. One day after the initial injection, human MIF levels had reached background levels for both conditions. […] It was hypothesized that, due to the short half-life of human MIF in serum, investigating human MIF levels at earlier time points may be more informative.
Next, an experiment was performed to determine whether MIF-GN3 could enhance MIF clearance at time points earlier than four hours. Mice were coinjected with recombinant human MIF and 10 mpk MIF-GN3 via either i.p. or i.v. routes. For the PBS control arms, human MIF was injected with PBS. It was observed that in the absence of MIF-GN3, there was a spike in huMIF levels in circulation after 30 minutes (FIG. 135). In the presence of MIF-GN3, however, levels of MIF protein remained low at 30 minutes and no spike in its concentration was observed. By two hours, the levels of human MIF in circulation decreased to background levels.
In a further experiment, whether an inhibitor of the MIF protein (3w) is able to mediate the protein's depletion from serum was determined. A bifunctional molecule that mediates the depletion of α-DNP antibody from serum was also assayed as a negative control. Neither of these molecules was expected to mediate the formation of a ternary complex between human MIF protein and ASGPR.

PC3 cells = experiment: PC3 human prostate cancer cell tumor model in mice; format: in vivo; details: MIF-GN3 at 10 mpk; control arms DNP-GN3 and 3w; FIG. 138
Description: The ability of MIF-GN3 to mediate the depletion of MIF in a therapeutically relevant disease model was investigated. […] An experiment was conducted to determine whether the bifunctional molecule MIF-GN3 can deplete sufficient human MIF from serum to slow PC3 tumor growth. Mice were injected with an aliquot of PC3 cells, and the size of the resultant tumors as well as the levels of human MIF in serum were monitored over five weeks. […] Five weeks after the initial PC3 cell injection, the first of the mice reached maximal tumor size ([…]) and was sacrificed (FIG. 138). […] The decrease in human MIF levels mediated by MIF-GN3 is consistent with a mechanism of action in which MIF-GN3 mediates the depletion and degradation of circulating MIF protein. While the α-MIF antibody would not necessarily be expected to decrease the levels of human MIF, it is possible that the antibody mediates MIF neutralization in a manner which masks its signal as determined by ELISA. Alternatively, the α-MIF antibody may mediate depletion or degradation of huMIF by some endocytic mechanism. Another possible explanation is that the α-MIF antibody decrease serum levels of active human MIF to such an extent at early time points that PC3 cells proliferate much more slowly, and therefore fewer cells are actively secreting human MIF.
Mice were sacrificed when their tumor volumes reached 1000 mm^3. […] At this same time point, less than 25% of the mice in any other arm had survived.

human MIF [5] = molecular target: T1, human MIF; experiment: Depletion of human MIF from cell culture supernatant (sandwich ELISA); format: cell-based; details: 24 hours; FIG. 128B
Description: The ability of bifunctional MIF-binding molecules to mediate the depletion of human MIF from cell culture was investigated. In these assays, human MIF was present at a concentration of 100 nM, and a sandwich ELISA assay was utilized to measure the concentration of human MIF remaining in the cell culture supernatant. The closely related bifunctional molecules MIF-GN3, MIF-PEG2-GN3, and MIF-PEG4-GN3 were used, as well as the structurally dissimilar molecule MIF-NVS-PEG3-GN3. […] Based on the ease of its synthesis and its efficacy in this experiment, MIF-GN3 was utilized for further studies. It was next investigated whether the MIF inhibitor 3w mediates MIF depletion from cell culture supernatant. […] When cells were treated with 3w, no depletion of exogenous MIF protein was observed after 24 hours (FIG. 128B).
Bifunctional molecules containing optimized ASGPR-binding motifs are also capable of mediating MIF depletion from cell culture supernatant (FIG. 129). The MIF-binding molecule MIF-AF1, which contains only a single ASGPR-binding sugar, was not effective at mediating depletion of MIF from supernatant at any concentration tested. It is hypothesized that this is due to the compound's low predicted affinity for ASGPR (μM range). […] At a concentration of either 200 nM or 1 μM, MIF-AF2 mediated nearly 100%/o depletion of MLF from the cell culture supernatant after 48 hours. […] In contrast to these molecules, which utilize optimized synthetic ASGPR ligands, the GalNAc-based molecule MIF-GN3 mediated only 67.0% and 56.0% removal of MIF from supernatant after 48 hours at concentrations of 1 μM and 200 nM, respectively. […] At a concentration of 40 nM (4.0 pmol of molecule), MIF-AF3 mediates the removal of 83.2% of MIF present in the cell culture supernatant, or 8.32 pmol of human MIF protein. Therefore, it was concluded that under the conditions of this experiment, MIF-AF3 mediates the depletion of 2.08 molar equivalents of MIF protein.

α-DNP antibody = experiment: In vivo depletion of α-DNP antibody from serum in mice (ELISA); details: FIG. 95
Description: FIG. 94 illustrates that serum levels of α-DNP antibody decrease more rapidly following repeated treatment with DNP-GN3. Serum antibody levels were measured using an ELISA assay. Each experimental group contained three mice. Statistical differences in experiments involving in vivo depletion of α-DNP antibody were assessed by repeated measures two-way ANOVA with Tukey's tests for post-hoc comparison of simple effects between each of the treatment groups and PBS.
Single doses of DNP-GN3 were also found to be efficacious at mediating α-DNP antibody depletion, albeit less effectively than daily dosing (FIG. 96). […] Therefore, it was concluded that DNP-GN3 is able to mediate the depletion of a monoclonal antibody from serum, and functions across a wide range of target protein concentrations and dosing regimens.
DNP-GN3 was also found to be efficacious in depleting polyclonal α-DNP antibody from serum collected from mice immunized with DNP-keyhole limpet haemocyanin (KLH) (FIG. 97). […] Thus, the small molecule DNP-GN3 is not restricted in function to only monoclonal mouse antibodies, but is also effective at removing polyclonal α-DNP antibodies from circulation in mice.

[6] = molecular target: human IgG (Alexa 488-labeled) (human); experiment: cell-based or functional assay
[7] = molecular target: asialoglycoprotein receptor on the surface of immortalized human hepatocyte HepG2 cells (human) (UniProt P07306); experiment: cell-based or functional assay
[8] = molecular target: asialoglycoprotein receptor on the surface of immortalized human hepatocyte HepG2 cells (human) (UniProt P07306); experiment: flow cytometry competition on HepG2 cells: ASOR against DNP-AF3 (40 nM)-mediated association of α-DNP antibody (100 nM) with ASGPR

asialoglycoprotein receptor on the surface of immortalized human hepatocyte HepG2 cells (human), sequence (P07306 whole entry, chain 1 of 2): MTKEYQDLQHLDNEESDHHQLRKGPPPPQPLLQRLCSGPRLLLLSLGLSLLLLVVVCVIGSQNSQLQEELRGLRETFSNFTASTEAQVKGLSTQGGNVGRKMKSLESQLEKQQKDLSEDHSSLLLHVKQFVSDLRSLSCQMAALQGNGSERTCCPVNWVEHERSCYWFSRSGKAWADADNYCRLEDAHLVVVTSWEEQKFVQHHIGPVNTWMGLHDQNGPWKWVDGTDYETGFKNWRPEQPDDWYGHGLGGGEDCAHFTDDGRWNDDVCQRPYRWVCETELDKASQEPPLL
asialoglycoprotein receptor on the surface of immortalized human hepatocyte HepG2 cells (human), sequence (P07307 whole entry, chain 2 of 2, further chain): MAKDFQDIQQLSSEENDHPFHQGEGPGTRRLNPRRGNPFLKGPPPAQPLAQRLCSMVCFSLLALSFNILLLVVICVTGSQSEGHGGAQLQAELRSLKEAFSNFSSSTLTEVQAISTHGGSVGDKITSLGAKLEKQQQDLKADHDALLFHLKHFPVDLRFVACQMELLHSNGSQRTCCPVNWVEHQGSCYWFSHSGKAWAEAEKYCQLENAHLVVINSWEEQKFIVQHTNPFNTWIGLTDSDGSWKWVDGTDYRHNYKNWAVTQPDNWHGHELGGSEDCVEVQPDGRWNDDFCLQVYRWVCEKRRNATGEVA

Row | Compound | effect of endocytic pathway inhibitors on MIF-GN3-mediated MIF endocytosis (HepG2 cells [1]) | effect of endocytic pathway inhibitors on intracellular fluorescence (DNP-GN3-mediated uptake) (HepG2 cells [2]) | effect of endocytic pathway inhibitors on DNP-AF3-mediated α-DNP antibody endocytosis (HepG2 cells [3]) | further results
1 | O=CC[C@@H](O)[C@H](O)[C@H](O)CO [2-deoxyglucose] | decreased significantly | significantly decreased | significant decrease | –
2 | Oc1ccc(-n2cc(-c3ccc4cc(OCCOCCN5CCOCC5)ccc4n3)nn2)cc1F [Compound 3w] | – | – | – | human MIF concentration in serum compared to the PBS control (human MIF [4]): no significant decreases; tumor growth (PC3 cells): not found to decrease tumor growth; depletion of exogenous MIF protein from cell culture supernatant (human MIF [5]): no depletion
3 | C=C1[C@@H](C)[C@H]2[C@H](Cc3ccccc3)NC(=O)[C@]23[C@H](OC(C)=O)/C=C/[C@@](C)(O)C(=O)[C@@H](C)C/C=C/[C@H]3[C@@H]1O [CytD] | – | – | non-significant decrease | –
4 | O=C(CCOCC(COCCC(=O)NCCOCCOCCO)(COCCC(=O)NCCOCCOCCO)NC(=O)CNC(=O)COCCOCCOCCNc1ccc([N+](=O)[O-])cc1[N+](=O)[O-])NCCOCCOCCO [DNP-OH3] | – | – | – | effect of competitive binders on DNP-AF3-mediated α-DNP antibody endocytosis (HepG2 cells [3]): decreased to near-background levels; antibody depletion from serum after negative control compound (α-DNP antibody): No accelerated antibody depletion
5 | CC(=O)N[C@H]1C(O)O[C@H](CO)[C@H](O)[C@@H]1O (stereo partly shown) [GalNAc, N-acetylgalactosamine] | – | – | – | effect of competitive binders on DNP-AF3-mediated α-DNP antibody endocytosis (HepG2 cells [3]): significantly decreased
6 | N=C(N)NC(=O)c1nc(Cl)c(N)nc1N [amiloride, Amiloride] | did not impact cellular fluorescence significantly | did not significantly decrease | decrease in cellular fluorescence | –
7 | O=c1c(-c2ccc(O)cc2)coc2cc(O)cc(O)c12 [genistein, Genistein] | – | – | did not significantly decrease | toxicity of endocytosis inhibitors to cells (HepG2 cells [1]; HepG2 cells in the presence of MIF and MIF-GN3): toxic
8 | COc1ccc2c(c1)c(CC(=O)O)c(C)n2C(=O)c1ccc(Cl)cc1 [indomethacin, Indomethacin] | did not decrease | – | did not significantly decrease | –
9 | CC[C@@]1([C@@H]2O[C@@H]([C@H]3O[C@@](O)(CO)[C@H](C)C[C@@H]3C)C[C@@H]2C)CC[C@H]([C@]2(C)CC[C@]3(C[C@H](O)[C@@H](C)[C@@H]([C@@H](C)[C@@H](OC)[C@H](C)C(=O)O)O3)O2)O1 [monensin, Monensin] | near background levels | significantly decreased | – | –
10 | C[C@@H]1[C@H](O)[C@@H](C)/C=C/C=C/CC/C=C/C=C/C=C/C=C/C(O[C@H]2O[C@H](C)[C@@H](O)[C@H](N)[C@@H]2O)CC2O[C@](O)(CC(O)C(O)CCC(O)CC(O)CC(O)CC(=O)O[C@H]1C)CC(O)C2C(=O)O (stereo partly shown) [nystatin, Nystatin] | did not decrease | did not significantly decrease | did not significantly decrease | –
11 | OC[C@H]1O[C@@](CO)(O[C@H]2O[C@H](CO)[C@@H](O)[C@H](O)[C@H]2O)[C@@H](O)[C@@H]1O [sucrose] | near background levels | significantly decreased | – | –
12 | FcIII-BCN-GN3 (peptide) | – | – | – | uptake of human IgG by HepG2 cells; most effective concentration of FcIII-BCN-GN3 [6]: 1 µM
13 | FcIII-GN3 (oxidized cyclized form) (peptide) | – | – | – | uptake of Alexa 488-labeled human IgG by HepG2 cells; concentration of FcIII-GN3 giving maximal uptake [6]: 200 nM
14 | asialoorosomucoid (ligand) | – | – | – | mean fluorescence of the cell population (DNP-AF3-mediated α-DNP antibody endocytosis, HepG2, flow cytometry); about 1.31e6 without inhibitor (mean fluorescence) [7]: 466000; percent decrease of ternary complex formation at 2.38 µM ASOR [8]: 70%
